Measured values from PMC7531004, “Discovery of gramicidin A analogues with altered activities by multidimensional screening of a one-bead-one-compound library” (Nature Communications, 2020).
Where “and” joins values, the source holds several entries; their conditions need not be identical. Equal values may be shown once. Read-outs that look alike come from different tables or passages of the source. Where a SMILES comes first, the peptide text is derived from it. [ ]: non-standard residue; d: D form. The star is where a group is joined. NHCH2CH2OH = OCCN*; For = O=C*

Assays:
[1] = Protocol: (§1) Second, we examined the cytotoxicity toward mammalian cancer cells and hemolytic activity of 1. […] Hemolytic activity was evaluated by monitoring hemoglobin leakage from rabbit red blood cells as a consequence of membrane damage. The concentration of 1 required to cause 10% hemoglobin leakage (HC10) was 160 nM. Thus, the P388 cytotoxicity of 1 was 28-fold more sensitive than its hemolytic activity.
Mammalian cytotoxicity assay of purified peptides.
B22 was diluted with the growth medium with 2% DMSO to various concentrations as 5-fold serial dilution.
The collected cells were resuspended into
the growth medium at 2 × 10^4 cells/mL. Aliquots of the former medium (2% DMSO, 100 µL) containing
peptides and the latter medium containing P388 cells (100 µL) were mixed in a 96-well cell culture plate
(TR5003, TrueLine). The final concentration of P388 cells and DMSO were 1 × 10^4 cells/mL and 1%,
respectively. […]
were determined by WST -1 assay. A solution of 1-methoxy PMS and WST-1 in the growth medium
(1-methoxy PMS 0.70 mg/mL in Milli-Q/WST-1 3.6 mg/mL in pH 7.4 HEPES buffer = 1/9) was added to
each well of the plate (20.0 µL/well). The cells were incubated for 4 h under atmosphere of 5% CO 2 at
37 °C. The absorbance of each well at 415 nm was measured using a Benchmark microplate reader
(Bio-Rad) or Thermo Scientifi c Multiskan GO (Thermo Fisher Scientific). The cytotoxicities of the purified
peptides were evaluated as IC 50 (nM) by means of three replicates. Sigmoidal curve fittings were performed

rabbit red blood cells = details: red cells of rabbit, 2 h
Protocol: as §1
Hemolysis assay of purified peptides. […]
with DMSO to various concentrations as 3-fold serial dilution. A 50% suspension of rabbit blood in Alsever's solution was obtained from Nippon Bio -Supp. Center . The blood suspension (250 µL) w as diluted with phosphate buffered saline (no calcium, no magnesium, 1.00 mL). The resultant suspension was centrifuged at 1000 × g for 3 min at 8 °C. The supernatant was discarded, and the collected cells were resuspended in phosphate buffered saline (no calcium, no magnesium, 1.00 mL). The same procedure was repeated (× 3). The resultant suspension (100 µL) was diluted with phosphate buffered saline (no calcium, no magnesium, 4.90 mL) to give 0.2% red blood cells suspension. The 0.2% red blood cells suspension (95.0 µL) and each dilution series of the purified peptide in DMSO (5 .0 µL) were mixed in 2 mL microtube.
supernatant was transferred to a 96-well plate (TR5003, TrueLine). The absorbance of each well at 415 nm was measured using a Thermo Scientific Multiskan GO (Thermo Fisher Scientific). The mixture of Triton X-100/H2O (5/95, 2.0 µL), DMSO (5.0 µL), and the 0.2% red blood cells suspension (95.0 µL) was used to determine 100% hemolysis. The mixture of DMSO (5.0 µL) and the 0.2% red blood cells suspension (95.0 µL) was used to determine 0% hemolysis. The hemolytic activities of tested peptides ( I) were normalized against 100% hemolysis by Triton X -100 (Imax) and 0% hemolysis by DMSO (I0) according to Supplementary Equation 3, where Ix is the UV absorbance.
I = 100 × (Ix – I0) / (Imax – I0) (3)
The hemolytic activities of the purified peptides were evaluated as the concentrations causing 10% hemolysis (HC10, nM) by means of three replicates. Sigmoidal curve fittings were performed on GraphPad Prism (GraphPad software, Supplementary Figure 7).

[2] = tested on: Enterococcus faecalis JCM5803; details: for antibacterial activity/MIC: E. faecalis; for Antibacterial activity MIC: JCM5803
Protocol: (§2) Third, 1 was subjected to five pathogenic Gram-positive bacteria.
(§3) Evaluation of antibacterial spectra of purified peptides. The MIC assay was performed according to the Clinical and Laboratory Standards Institute protocols. The antibacterial activities of the purified peptides A1, B01–B04, B11–B13, B21, and B22 were measured using the broth microdilution method. 6 Serial dilutions of the peptides were prepared in cation adjusted Mueller Hinton Broth. Each dilution (100 µL) was dispensed to each well of the round-bottom plate to obtain final concentrations ranging from 64 µg/mL to 0.00024 µg/mL. Bacteria were grown at 37 °C overnight on Tryptic Soy Broth or Mueller Hinton Broth agar plates.
(§4) The bacterial colonies were suspended in 0.9% saline to obtain OD 625 of 0.08–0.13 using a spectrophotometer UV-1280 (Shimadzu). The resultant suspension was diluted with cation adjusted Mueller Hinton Broth (1/20). The resultant mixture (10 .0 µL) was inoculated to each well of the plates (approximately 5 × 10^4 CFU/well), mixed, and incubated at 37 °C for 18–24 h. The MIC value was determined as the minimum concentration that inhibited growth of bacteria. For Streptococcus species, cation adjusted Mueller Hinton Broth supplemented with 5% laked horse blood was used. […]

[3] = tested on: Listeria monocytogenes 10403S; details: for Antibacterial activity MIC: 10403S; for antibacterial activity/MIC: L. monocytogenes
Protocol: as §2, §3, §4

[4] = tested on: Streptococcus agalactiae JCM5671; details: for Antibacterial activity MIC: JCM5671; for antibacterial activity/MIC: S. agalactiae
Protocol: as §2, §3, §4

[5] = tested on: Streptococcus pneumoniae NBRC 102642; details: for Antibacterial activity MIC: NBRC 102642; for antibacterial activity/MIC: S. pneumoniae
Protocol: as §2, §3, §4

[6] = tested on: Streptococcus pyogenes SSI-9; details: for antibacterial activity/MIC: S. pyogenes; for Antibacterial activity MIC: SSI-9
Protocol: as §2, §3, §4

[7] = tested on: MSSA1 (methicillin-susceptible Staphylococcus aureus); type: cell-based
Protocol: as §3, §4

[8] = H+/Na+ transport assay of purified peptides; details: for Supplementary Figure 5 dose-response value (H+/Na+ transport): three replicate lines
[9] = read-out: EC50, H+/Na+ transport assay, 1st experiment
[10] = read-out: EC50, H+/Na+ transport assay, 2nd experiment
[11] = read-out: EC50, H+/Na+ transport assay, 3rd experiment
[12] = read-out: H+/Na+ transport activity EC50, EYPC/EYPG (19:1) LUVs
[13] = read-out: H+/Na+ transport activity/EC50, mean ± SD of three independent experiments

Compound	IC50 ([1]; Cytotoxicity IC50)	Hemolytic activity HC10 (concentration causing 10% hemolysis) (rabbit red blood cells)	antibacterial activity/MIC [2]	Antibacterial activity MIC [2]	Antibacterial activity MIC [3]	antibacterial activity/MIC [3]	Antibacterial activity MIC [4]	antibacterial activity/MIC [4]	Antibacterial activity MIC [5]	antibacterial activity/MIC [5]	antibacterial activity/MIC [6]	Antibacterial activity MIC [6]	antibacterial activity/MIC [7]	Supplementary Figure 5 dose-response value (H+/Na+ transport) ([8]; concentration 0.000512 nM)	Supplementary Figure 5 dose-response value (H+/Na+ transport) ([8]; concentration 0.00256 nM)	Supplementary Figure 5 dose-response value (H+/Na+ transport) ([8]; concentration 0.0128 nM)	Supplementary Figure 5 dose-response value (H+/Na+ transport) ([8]; concentration 0.064 nM)	Supplementary Figure 5 dose-response value (H+/Na+ transport) ([8]; concentration 0.32 nM)	Supplementary Figure 5 dose-response value (H+/Na+ transport) ([8]; concentration 1.6 nM)	Supplementary Figure 5 dose-response value (H+/Na+ transport) ([8]; concentration 8 nM)	also measured
CC(C)C[C@@H](NC(=O)[C@H](Cc1c[nH]c2ccccc12)NC(=O)[C@@H](CC(C)C)NC(=O)[C@H](Cc1c[nH]c2ccccc12)NC(=O)[C@@H](CC(C)C)NC(=O)[C@H](Cc1c[nH]c2ccccc12)NC(=O)[C@H](NC(=O)[C@@H](NC(=O)[C@H](NC(=O)[C@H](C)NC(=O)[C@H](NC(=O)[C@H](C)NC(=O)CNC(=O)[C@@H](NC=O)C(C)C)C(C)C)C(C)C)C(C)C)C(C)C)C(=O)N[C@@H](Cc1c[nH]c2ccccc12)C(=O)NCCO [A1] (For-VGA[dV]A[dV]V[dV]W[dL]W[dL]W[dL]W-NHCH2CH2OH)	4.1 nM	240 nM	0.25 µg/mL	0.13 µM	1.1 µM	2 µg/mL	0.54 µM	1 µg/mL	0.001 µM	0.0019 µg/mL	0.015 µg/mL	0.008 µM	8 µg/mL	1.8002 and 1.763 and 1.206	3.307 and 4.634 and 1.407	5.867 and 6.44 and 5.481	6.841 and 9.002 and 6.572	16.8499 and 16.683 and 16.1323	35.8143 and 34.663 and 30.2235	59.1193 and 56.2604 and 57.9939	IC50 ([1]; IC50, mammalian cytotoxicity assay): 3.52 nM; Supplementary Figure 5 dose-response value (H+/Na+ transport) ([8]; concentration 40 nM): 69.1281 and 68.6879 and 67.3822; Supplementary Figure 5 dose-response value (H+/Na+ transport) ([8]; concentration 200 nM): 71.9954 and 72.6939 and 69.0451; Supplementary Figure 5 dose-response value (H+/Na+ transport) ([8]; concentration 1000 nM): 75.1932 and 74.1998 and 72.8534; Supplementary Figure 5 dose-response value (H+/Na+ transport) ([8]; concentration 5000 nM): 74.4116 and 69.1356 and 72.7894; EC50 [8, 9]: 1.9 nM; EC50 [8, 10]: 3.5 nM; EC50 [8, 11]: 1.99 nM; EC50 [8, 12]: 2.5 nM; EC50 [8, 13]: 2.46 ± 0.9 nM
CC(C)C[C@@H](NC(=O)[C@H](Cc1c[nH]c2ccccc12)NC(=O)[C@H](NC(=O)[C@@H](NC(=O)[C@H](NC(=O)[C@H](C)NC(=O)[C@H](NC(=O)[C@H](C)NC(=O)CNC(=O)[C@@H](NC=O)C(C)C)C(C)C)C(C)C)C(C)C)C(C)C)C(=O)N[C@@H](Cc1c[nH]c2ccccc12)C(=O)N[C@@H](C(=O)N[C@@H](Cc1c[nH]c2ccccc12)C(=O)N[C@@H](C(=O)N[C@@H](Cc1c[nH]c2ccccc12)C(=O)NCCO)C(C)C)C(C)C [B01] (For-VGA[dV]A[dV]V[dV]W[dL]W[dV]W[dV]W-NHCH2CH2OH)	17 nM	1100 nM	0.5 µg/mL	0.27 µM	4.3 µM	8 µg/mL	8.7 µM	16 µg/mL	0.0021 µM	0.0039 µg/mL	0.03 µg/mL	0.016 µM	16 µg/mL	1.909 and 4.796 and 3.187	2.582 and 3.582 and 5.168	3.806 and 6.172 and 6.274	6.1 and 7.567 and 7.349	11.2834 and 14.5673 and 12.3484	32.2794 and 31.2161 and 30.2392	59.2885 and 57.8145 and 59.5121	IC50 ([1]; cytotoxicity against P388 cells/IC50): 17.5 ± 12 nM; Supplementary Figure 5 dose-response value (H+/Na+ transport) ([8]; concentration 40 nM): 71.8328 and 71.2991 and 68.3245; Supplementary Figure 5 dose-response value (H+/Na+ transport) ([8]; concentration 200 nM): 69.4784 and 69.9514 and 71.5477; Supplementary Figure 5 dose-response value (H+/Na+ transport) ([8]; concentration 1000 nM): 71.9268 and 73.661 and 73.9278; Supplementary Figure 5 dose-response value (H+/Na+ transport) ([8]; concentration 5000 nM): 81.6644 and 79.4929 and 76.8567; EC50 [8, 9]: 2.67 nM; EC50 [8, 10]: 1.67 nM; EC50 [8, 11]: 2.49 nM; EC50 [8, 12]: 2.3 nM; EC50 [8, 13]: 2.28 ± 0.54 nM
